Data: PMC11672152 (JACS Au, 2024)

Columns and labels:
[1] = In vitro 1O2-scavenging capacity; type: biochemical; details: amino acid 80 μM; normalized to Cys; Figure S18
[2] = test system: •OH in chloroplasts of N. benthamiana leaf discs; test: In vivo •OH level in chloroplasts of leaf discs; type: cell-based, Nicotiana benthamiana; details: MV 0.35 μM, HPF 5 μM; MV(+) vs MV(−); n = 8; Figure S22
[3] = test system: ^1O2 in chloroplasts of N. benthamiana leaf discs; test: In vivo 1O2 level in chloroplasts of leaf discs; type: cell-based, Nicotiana benthamiana; details: MV 0.35 μM, SOSG 10 μM; MV(+) vs MV(−); n = 8; Figure S22
[4] = In vitro •OH-scavenging capacity; type: biochemical; details: amino acid 80 μM; Cys, Met and Trp compared, normalized to Cys; Figure S18

N[C@@H](CS)C(=O)O [Cys, cysteine]
1O2-scavenging capacity of amino acids compared with Trp [1]: more effective scavengers for ^1O2 than Trp

C[n+]1ccc(-c2cc[n+](C)cc2)cc1 [MV, methyl viologen]
effect on cellular levels of •OH [2]: elevated the cellular levels of •OH | effect on cellular levels of 1O2 [3]: did not affect those of ^1O2

CSCC[C@H](N)C(=O)O [Met, methionine]
1O2-scavenging capacity of amino acids compared with Trp [1]: more effective scavengers for ^1O2 than Trp

N[C@@H](Cc1c[nH]c2ccccc12)C(=O)O [Trp, tryptophan]
•OH-scavenging capacity of amino acids [4]: highest •OH-scavenging capacity
